In article PMC7614683, “A small molecule PI3Kα activator for cardioprotection and neuroregeneration” (Nature, 2023):

Columns and labels:
Assay in all cases: SelectScreen LanthaScreen Binding
Settings in all cases: 1000 nM
MAP4K1 (HPK1) = MAP4K1 (HPK1) (Homo sapiens, UniProt Q92918)
Experimental: (§1) 133 protein kinases and 7 lipid kinases were counterscreened, with 1938 used at 1 μM, using the Adapta, Lantha and Z-LYTE assays (SelectScreen Kinase Profiling Service; Thermofisher – experimental details of these assays can be found here: https://www.thermofisher.com/uk/en/home/industrial/pharma-biopharma/drug-discovery-development/target-and-lead-identification-and-validation/kinasebiology/kinase-activity-assays.html. The tree represention in KinMap[59] generated courtesy of Cell Signaling Technology, Inc. (www.cellsignal.com). mTORC1 (mTOR/RAPTOR/LST8) protein complex and ATM kinase and substrates were produced as previously described[57],[60]. Screening of 1938 was conducted using SuperSep Phos-Tag 50 μmol/l 100 x 100 x 6.6 mm 17-well (192-18001/199-18011) gels. For ATM assays, 100 nM ATM was incubated for 30 min at 30°C with 5 μM GST-p53 and 1 mM ATP, in the absence or presence of 200 μM 1938 in ATM Kinase Buffer (50 mM HEPES pH 7.5, 100 mM NaCl, 10% glycerol, 2 mM […], 5 mM MgCl2). As a positive control for ATM activation, the same reaction was carried out with 100 nM ATM/5 μM GST-p53/1 mM ATP in the presence of 100 nM Mre11-Rad50-Nbs1 (MRN) complex, a known activator of ATM[61]. For mTORC1 assays, 50 nM mTORC1 complex (mTOR/LST8/RAPTOR) was incubated for 3 h at 30°C with 15 μM 4E-BP1, 10 mM MgCl2 and 250 μM ATP, in the absence or presence of 200 μM 1938. As a ‘positive’ control, a higher concentration (150 nM) of mTORC1 complex (mTOR/LST8/RAPTOR) was incubated for 3 h at 30°C with 15 μM 4E-BP1, 10 mM MgCl2 and 250 μM ATP. Kinase reactions were quenched by addition of SDS-PAGE Loading Buffer (as per manufacturer’s instructions) and freezing at -20°C before being run on the Phos-tag gels at 150 V for 90 min. Gels were then stained using InstantBlue™ Coomassie, and quantified using BioRad Image Lab Software. Kinase assays were carried out in triplicate.

RET V804M = RET V804M (Homo sapiens, UniProt P07949, V804M)
Sequence of RET V804M (P07949 29-1114 V804M): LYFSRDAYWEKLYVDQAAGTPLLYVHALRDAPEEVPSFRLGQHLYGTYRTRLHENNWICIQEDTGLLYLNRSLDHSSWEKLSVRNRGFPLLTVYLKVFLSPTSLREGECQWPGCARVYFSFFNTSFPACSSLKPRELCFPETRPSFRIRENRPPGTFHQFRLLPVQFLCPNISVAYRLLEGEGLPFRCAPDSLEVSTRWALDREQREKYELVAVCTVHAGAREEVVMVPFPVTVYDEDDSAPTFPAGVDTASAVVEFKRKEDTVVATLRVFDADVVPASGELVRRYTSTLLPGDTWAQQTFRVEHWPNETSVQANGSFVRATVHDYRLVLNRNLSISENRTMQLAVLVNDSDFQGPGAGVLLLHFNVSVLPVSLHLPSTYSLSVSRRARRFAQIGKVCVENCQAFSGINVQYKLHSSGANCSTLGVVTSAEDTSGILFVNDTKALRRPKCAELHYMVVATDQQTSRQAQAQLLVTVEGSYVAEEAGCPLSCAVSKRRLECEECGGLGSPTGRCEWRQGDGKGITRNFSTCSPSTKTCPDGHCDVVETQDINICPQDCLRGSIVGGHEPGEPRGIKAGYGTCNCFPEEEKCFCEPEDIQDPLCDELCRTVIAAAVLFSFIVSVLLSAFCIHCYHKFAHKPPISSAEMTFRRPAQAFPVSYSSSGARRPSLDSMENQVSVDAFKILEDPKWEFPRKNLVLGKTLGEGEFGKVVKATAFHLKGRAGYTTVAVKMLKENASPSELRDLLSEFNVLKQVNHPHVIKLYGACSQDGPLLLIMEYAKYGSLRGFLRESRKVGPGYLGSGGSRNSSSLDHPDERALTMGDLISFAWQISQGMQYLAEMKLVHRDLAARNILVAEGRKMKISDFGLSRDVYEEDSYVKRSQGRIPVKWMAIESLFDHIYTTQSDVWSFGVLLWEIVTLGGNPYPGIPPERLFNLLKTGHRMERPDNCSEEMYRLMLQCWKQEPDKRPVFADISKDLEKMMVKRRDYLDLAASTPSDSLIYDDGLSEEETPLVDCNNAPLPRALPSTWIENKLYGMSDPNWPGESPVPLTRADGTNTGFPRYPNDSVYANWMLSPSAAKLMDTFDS
Experimental: as §1

CDK2/cyclin E1 = CDK2/cyclin E1 (Homo sapiens, UniProt P24941)
Experimental: as §1

DYRK2 = target: T1, DYRK2 (Homo sapiens, UniProt Q92630)
T1 sequence (Q92630 1-601): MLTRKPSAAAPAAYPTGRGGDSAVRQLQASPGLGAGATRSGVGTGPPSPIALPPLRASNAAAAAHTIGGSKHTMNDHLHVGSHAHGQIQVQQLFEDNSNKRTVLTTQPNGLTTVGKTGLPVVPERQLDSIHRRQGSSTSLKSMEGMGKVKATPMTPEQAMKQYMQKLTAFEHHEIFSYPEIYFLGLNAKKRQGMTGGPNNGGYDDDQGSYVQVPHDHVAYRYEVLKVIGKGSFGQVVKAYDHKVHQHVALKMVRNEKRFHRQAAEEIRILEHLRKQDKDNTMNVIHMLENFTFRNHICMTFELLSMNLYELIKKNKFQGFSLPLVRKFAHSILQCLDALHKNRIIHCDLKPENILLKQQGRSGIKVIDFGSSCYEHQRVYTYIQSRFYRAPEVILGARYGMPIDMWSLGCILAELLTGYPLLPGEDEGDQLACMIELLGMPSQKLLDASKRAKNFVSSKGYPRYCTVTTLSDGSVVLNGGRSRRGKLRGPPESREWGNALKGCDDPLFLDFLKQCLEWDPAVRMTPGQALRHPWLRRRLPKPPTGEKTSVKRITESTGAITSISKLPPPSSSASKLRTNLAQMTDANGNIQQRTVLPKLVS
Experimental: as §1

MYLK (MLCK) = MYLK (MLCK) (Homo sapiens, UniProt Q15746)
Sequence of MYLK (MLCK) (Q15746 whole entry): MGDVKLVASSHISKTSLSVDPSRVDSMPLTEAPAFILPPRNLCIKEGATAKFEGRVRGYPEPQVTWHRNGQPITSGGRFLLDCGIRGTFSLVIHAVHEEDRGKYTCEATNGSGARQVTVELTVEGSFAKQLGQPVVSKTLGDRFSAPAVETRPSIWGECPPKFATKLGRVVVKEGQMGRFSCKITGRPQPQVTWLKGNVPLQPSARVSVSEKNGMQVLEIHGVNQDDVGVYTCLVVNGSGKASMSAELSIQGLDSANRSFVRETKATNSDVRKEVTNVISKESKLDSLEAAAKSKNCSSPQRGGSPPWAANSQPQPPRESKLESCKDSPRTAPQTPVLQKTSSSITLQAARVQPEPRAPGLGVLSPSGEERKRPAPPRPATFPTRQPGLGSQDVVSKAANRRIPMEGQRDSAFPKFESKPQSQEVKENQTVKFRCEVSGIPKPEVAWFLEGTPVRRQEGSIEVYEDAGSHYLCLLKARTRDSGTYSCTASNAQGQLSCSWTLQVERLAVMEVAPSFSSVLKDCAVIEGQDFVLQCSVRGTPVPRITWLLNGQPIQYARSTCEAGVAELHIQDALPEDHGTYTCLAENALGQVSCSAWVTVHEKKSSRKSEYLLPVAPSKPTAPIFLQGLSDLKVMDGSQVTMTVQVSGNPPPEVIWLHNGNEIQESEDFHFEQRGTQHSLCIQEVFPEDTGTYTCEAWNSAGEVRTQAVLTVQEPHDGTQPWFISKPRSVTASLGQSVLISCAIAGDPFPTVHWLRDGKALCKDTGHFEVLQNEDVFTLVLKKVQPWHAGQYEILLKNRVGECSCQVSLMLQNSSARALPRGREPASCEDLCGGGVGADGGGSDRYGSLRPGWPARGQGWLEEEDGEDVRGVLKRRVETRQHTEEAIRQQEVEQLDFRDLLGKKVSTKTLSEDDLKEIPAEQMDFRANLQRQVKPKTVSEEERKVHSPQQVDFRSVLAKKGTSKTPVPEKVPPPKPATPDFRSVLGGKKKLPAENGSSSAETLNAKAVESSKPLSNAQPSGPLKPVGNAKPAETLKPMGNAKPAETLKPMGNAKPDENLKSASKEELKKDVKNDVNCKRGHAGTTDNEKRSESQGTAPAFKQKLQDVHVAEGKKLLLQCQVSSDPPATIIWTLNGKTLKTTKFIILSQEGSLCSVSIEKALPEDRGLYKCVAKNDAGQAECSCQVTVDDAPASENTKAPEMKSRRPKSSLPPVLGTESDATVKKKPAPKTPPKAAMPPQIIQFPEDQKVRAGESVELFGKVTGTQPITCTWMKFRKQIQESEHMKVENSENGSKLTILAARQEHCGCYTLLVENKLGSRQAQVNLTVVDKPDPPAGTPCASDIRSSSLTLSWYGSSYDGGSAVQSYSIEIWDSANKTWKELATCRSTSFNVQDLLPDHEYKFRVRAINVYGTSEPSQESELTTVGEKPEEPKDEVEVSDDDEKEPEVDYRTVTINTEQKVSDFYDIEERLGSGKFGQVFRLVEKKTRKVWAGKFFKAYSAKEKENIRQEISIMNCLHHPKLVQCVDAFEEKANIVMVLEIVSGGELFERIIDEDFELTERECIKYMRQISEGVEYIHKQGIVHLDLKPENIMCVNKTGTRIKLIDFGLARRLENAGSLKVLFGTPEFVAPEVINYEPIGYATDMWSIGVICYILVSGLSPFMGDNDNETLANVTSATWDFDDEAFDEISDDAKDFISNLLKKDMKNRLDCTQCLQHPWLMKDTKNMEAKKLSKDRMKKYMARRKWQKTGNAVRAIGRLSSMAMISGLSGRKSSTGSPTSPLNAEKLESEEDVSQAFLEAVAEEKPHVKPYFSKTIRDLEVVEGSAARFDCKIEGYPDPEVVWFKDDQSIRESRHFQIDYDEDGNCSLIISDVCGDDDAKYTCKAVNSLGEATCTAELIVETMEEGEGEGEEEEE
Experimental: as §1

CLK4 = CLK4 (Homo sapiens, UniProt Q9HAZ1)
Sequence of CLK4 (Q9HAZ1 whole entry): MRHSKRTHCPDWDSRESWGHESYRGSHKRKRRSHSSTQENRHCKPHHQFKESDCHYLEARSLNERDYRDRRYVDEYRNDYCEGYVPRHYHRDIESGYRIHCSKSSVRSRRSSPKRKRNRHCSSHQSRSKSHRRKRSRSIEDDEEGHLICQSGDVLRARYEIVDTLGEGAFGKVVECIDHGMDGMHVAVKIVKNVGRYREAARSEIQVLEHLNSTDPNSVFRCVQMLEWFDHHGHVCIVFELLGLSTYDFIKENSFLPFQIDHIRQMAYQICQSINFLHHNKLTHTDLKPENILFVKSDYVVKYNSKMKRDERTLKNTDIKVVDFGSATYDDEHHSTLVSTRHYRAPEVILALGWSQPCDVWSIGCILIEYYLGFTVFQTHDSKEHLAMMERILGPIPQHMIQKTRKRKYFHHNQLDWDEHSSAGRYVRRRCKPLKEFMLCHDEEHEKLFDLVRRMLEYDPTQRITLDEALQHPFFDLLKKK
Experimental: as §1

STK17A (DRAK1) = target: T2, STK17A (DRAK1) (Homo sapiens, UniProt Q9UEE5)
T2 sequence (Q9UEE5 1-414): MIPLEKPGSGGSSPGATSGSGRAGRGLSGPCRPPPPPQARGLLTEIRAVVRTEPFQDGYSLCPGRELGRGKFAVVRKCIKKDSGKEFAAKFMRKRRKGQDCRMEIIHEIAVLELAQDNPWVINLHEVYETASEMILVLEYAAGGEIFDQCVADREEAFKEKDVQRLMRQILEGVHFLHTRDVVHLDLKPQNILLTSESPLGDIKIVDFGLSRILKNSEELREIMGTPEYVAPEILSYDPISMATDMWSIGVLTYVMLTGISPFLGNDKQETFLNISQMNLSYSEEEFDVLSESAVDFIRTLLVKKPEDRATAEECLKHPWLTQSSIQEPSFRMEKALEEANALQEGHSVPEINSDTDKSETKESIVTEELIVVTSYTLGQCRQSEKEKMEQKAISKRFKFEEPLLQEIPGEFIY
Experimental: as §1

FGFR1 V561M = FGFR1 V561M (Homo sapiens, UniProt P11362, V561M)
Sequence of FGFR1 V561M (P11362 22-822 V561M): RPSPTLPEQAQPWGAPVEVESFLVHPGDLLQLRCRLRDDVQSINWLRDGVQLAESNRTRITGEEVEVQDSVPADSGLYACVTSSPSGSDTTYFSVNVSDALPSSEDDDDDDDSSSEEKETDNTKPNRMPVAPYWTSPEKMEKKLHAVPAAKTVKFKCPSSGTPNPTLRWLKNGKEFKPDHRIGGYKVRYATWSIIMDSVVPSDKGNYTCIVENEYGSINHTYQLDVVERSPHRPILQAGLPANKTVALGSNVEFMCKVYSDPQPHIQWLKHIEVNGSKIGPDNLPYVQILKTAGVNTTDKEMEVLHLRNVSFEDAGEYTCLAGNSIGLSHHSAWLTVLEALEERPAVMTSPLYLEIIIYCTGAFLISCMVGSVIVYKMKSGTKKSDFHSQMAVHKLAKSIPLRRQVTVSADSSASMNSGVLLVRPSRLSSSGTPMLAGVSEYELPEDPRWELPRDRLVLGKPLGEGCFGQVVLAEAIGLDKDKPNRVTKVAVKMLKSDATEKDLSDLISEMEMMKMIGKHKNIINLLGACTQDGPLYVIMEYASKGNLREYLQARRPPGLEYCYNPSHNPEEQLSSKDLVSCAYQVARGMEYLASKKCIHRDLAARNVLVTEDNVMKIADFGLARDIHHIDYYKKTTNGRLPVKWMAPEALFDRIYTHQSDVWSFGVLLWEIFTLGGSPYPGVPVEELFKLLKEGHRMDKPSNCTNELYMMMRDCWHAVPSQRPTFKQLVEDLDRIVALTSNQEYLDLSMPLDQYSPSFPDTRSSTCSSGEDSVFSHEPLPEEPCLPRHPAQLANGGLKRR
Experimental: as §1

Sequence of MAP4K1 (HPK1) (Q92918 whole entry): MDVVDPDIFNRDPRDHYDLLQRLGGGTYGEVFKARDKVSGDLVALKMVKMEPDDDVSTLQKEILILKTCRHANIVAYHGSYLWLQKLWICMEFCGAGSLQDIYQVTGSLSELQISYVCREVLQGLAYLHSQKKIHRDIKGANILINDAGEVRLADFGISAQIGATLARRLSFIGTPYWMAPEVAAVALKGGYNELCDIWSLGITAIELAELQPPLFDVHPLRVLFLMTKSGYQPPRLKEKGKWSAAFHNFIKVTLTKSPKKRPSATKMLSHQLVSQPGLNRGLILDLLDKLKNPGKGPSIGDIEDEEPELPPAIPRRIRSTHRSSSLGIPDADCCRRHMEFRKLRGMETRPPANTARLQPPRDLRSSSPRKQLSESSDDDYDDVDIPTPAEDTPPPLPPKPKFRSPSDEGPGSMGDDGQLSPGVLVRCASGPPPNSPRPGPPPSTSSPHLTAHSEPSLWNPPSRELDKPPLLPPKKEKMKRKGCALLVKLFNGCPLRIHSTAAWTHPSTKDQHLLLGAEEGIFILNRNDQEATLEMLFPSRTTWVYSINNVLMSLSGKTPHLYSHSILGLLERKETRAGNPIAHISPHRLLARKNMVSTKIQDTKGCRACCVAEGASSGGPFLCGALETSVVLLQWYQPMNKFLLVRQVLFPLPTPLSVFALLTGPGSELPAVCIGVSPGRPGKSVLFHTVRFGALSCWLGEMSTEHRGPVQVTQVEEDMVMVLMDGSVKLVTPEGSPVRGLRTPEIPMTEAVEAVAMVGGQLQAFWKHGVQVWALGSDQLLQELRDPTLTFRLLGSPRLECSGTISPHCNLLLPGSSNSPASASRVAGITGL

CCN1CCN(c2ccc(Nc3cc(Nc4cccc5c4N(C(C)=O)CC5)ccn3)cc2)CC1 [Compound 1938]
% Displacement Point 1 (MAP4K1 (HPK1)): -3.25%
% Displacement Point 2 (MAP4K1 (HPK1)): 6.64%
% Displacement mean (MAP4K1 (HPK1)): 1.7%
% Displacement Point 1 (RET V804M): 1.24%
% Displacement Point 2 (RET V804M): -3%
% Displacement mean (RET V804M): -0.94%
% Displacement Point 1 (CDK2/cyclin E1): 3%
% Displacement Point 2 (CDK2/cyclin E1): -14%
% Displacement mean (CDK2/cyclin E1): -5.56%
% Displacement Point 1 (DYRK2): 23%
% Displacement Point 2 (DYRK2): 1%
% Displacement mean (DYRK2): 12%
% Displacement Point 1 (MYLK (MLCK)): 1.85%
% Displacement Point 2 (MYLK (MLCK)): 2.24%
% Displacement mean (MYLK (MLCK)): 2%
% Displacement Point 1 (CLK4): 1.72%
% Displacement Point 2 (CLK4): 6.61%
% Displacement mean (CLK4): 4%
% Displacement Point 1 (STK17A (DRAK1)): 2.26%
% Displacement Point 2 (STK17A (DRAK1)): 10%
% Displacement mean (STK17A (DRAK1)): 6.32%
% Displacement Point 1 (FGFR1 V561M): 8%
% Displacement Point 2 (FGFR1 V561M): 8.43%
% Displacement mean (FGFR1 V561M): 8%
